The results in this text go back to patent publication US20090048269A1 (AstraZeneca AB, priority 2007, published 2009).

This test concerns the target T1, human ALK5 (Homo sapiens, UniProt P36897).
T1 sequence (P36897 162-503): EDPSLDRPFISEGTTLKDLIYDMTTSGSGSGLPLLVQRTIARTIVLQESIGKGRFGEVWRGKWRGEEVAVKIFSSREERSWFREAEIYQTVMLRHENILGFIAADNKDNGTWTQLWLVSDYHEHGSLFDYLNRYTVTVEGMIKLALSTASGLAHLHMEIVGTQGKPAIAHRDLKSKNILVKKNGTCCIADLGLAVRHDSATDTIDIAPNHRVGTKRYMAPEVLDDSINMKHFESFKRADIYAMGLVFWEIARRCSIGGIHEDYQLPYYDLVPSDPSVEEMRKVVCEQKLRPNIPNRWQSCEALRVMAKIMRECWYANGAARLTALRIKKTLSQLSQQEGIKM
In words: ALK5 Enzyme Assay 2 (fluorescence polarisation probe displacement). The arrangement: 6His tagged human ALK5 (residues162-503) was grown and purified from insect cells; 6His; made in house; host or cells: insect cells. It is filed as binding. The note with it: read-out: EAA2: activity (μM) using Enzyme Assay 2. Summed up:
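Recombinant ALK5 (3 μg/mL) incubated with test compound in 50 mM HEPES pH7.4, 10 mM MgCl2, 1 mM DTT, 0.01% CHAPS. Displacement of a fluorescent quinazoline-based ALK5 probe (50 nM final) in presence of 1 μM ATP read by fluorescence polarisation.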
A general note: In fluorescence polarisation assays a small probe gives low polarisation when free and higher when bound to something large.
As for `Cc1cc(Oc2ccnc(Nc3cccc(C(=O)N4CCC4)c3)c2)c(-c2ccccn2)nc1C` [Example 98, Azetidin-1-yl-(3-{[4-(5,6-dimethyl-2-pyridin-2-ylpyridin-3-yl)-oxypyridin-2-yl]amino}phenyl)methanone], the IC50 was 0.0513 µM.

On to `Cc1ccc(Oc2ccnc(Nc3cccc(CN4CCN(S(=O)(=O)c5cccnc5-n5cncn5)CC4)c3)c2)c(C)n1` [Example 182, 4-(2,6-Dimethylpyridin-3-yl)oxy-N-[3-({4-[2-(1,2,4-triazol-1-yl)-pyridin-3-yl]sulfonylpiperazin-1-yl}methyl)phenyl]pyridin-2-amine], for which the IC50 came to 0.0183 µM.

For the compound `Cc1ccc(Oc2ccnc(Nc3cccc(C(=O)N4CC[C@@H](S(C)(=O)=O)C4)c3)c2)c(C)n1` (single isomer, unassigned) [Example 139], the IC50 was 0.0495 µM.

On to `Cc1ccc(Oc2ccnc(Nc3ccc(S(=O)(=O)N4CCCCC4)cc3)c2)c(C)n1` [Example 115, 4-(2,6-Dimethylpyridin-3-yl)oxy-N-(4-piperidin-1-ylsulfonyl-phenyl)pyridin-2-amine], for which the IC50 amounted to 5.41 µM.

As for `Cc1cc(Oc2ccnc(Nc3cc(NS(C)(=O)=O)cc(C(N)=O)c3)c2)c(-c2ccccn2)nc1C` [Example 84, 3-{[4-(5,6-Dimethyl-2-pyridin-2-ylpyridin-3-yl)oxypyridin-2-yl]-amino}-5-methanesulfonamidobenzamide], the IC50 came out at 0.016 µM.

For `Cc1ccc(Oc2ccnc(Nc3cccc(C(=O)N4CC[C@H](S(C)(=O)=O)C4)c3)c2)c(C)n1` (single isomer, unassigned) [Example 138], the IC50 was found to be 0.0143 µM.

Turning to `Cc1ccc(Oc2ccnc(Nc3ccccc3)c2)c(C(=O)NCc2ccccc2)n1` [Example 96, 3-(2-Anilinopyridin-4-yl)oxy-N-benzyl-6-methylpyridine-2-carboxamide], the IC50 was 0.292 µM.

`Cc1ccc(Oc2ccnc(Nc3ccc(S(N)(=O)=O)cc3)c2)c(-c2ccc(F)cc2)n1` [Example 156, 4-({4-[2-(4-Fluorophenyl)-6-methylpyridin-3-yl]oxypyridin-2-yl}amino)benzenesulfonamide]: the IC50 was 0.0454 µM.

Turning to `Cc1cc(Oc2ccnc(Nc3cccc(C(=O)NCc4ccccn4)c3)c2)c(-c2ccccn2)nc1C` [Example 99, 3-{[4-(5,6-Dimethyl-2-pyridin-2-ylpyridin-3-yl)oxypyridin-2-yl]-amino}-N-(pyridin-2-ylmethyl)benzamide], the IC50 came to 0.00734 µM.

Regarding `Cc1ccc(Oc2ccnc(Nc3cccc(CN4CCN(C(=O)NC56CC7CC(CC(C7)C5)C6)CC4)c3)c2)c(C)n1` [Example 177], the IC50 was determined as 0.0469 µM.

Consider `Cc1ccc(Oc2ccnc(Nc3ccccc3)c2)c(C(=O)NCC2CC2)n1` [Example 93, 3-(2-Anilinopyridin-4-yl)oxy-N-(cyclopropylmethyl)-6-methyl-pyridine-2-carboxamide], for which the IC50 came to 0.154 µM.

For `Cc1ccc(Oc2ccnc(Nc3cccc(CO)c3)c2)c(C)n1` [Example 174, (3-{[4-(2,6-Dimethylpyridin-3-yl)oxypyridin-2-yl]amino}phenyl)-methanol], the IC50 was 0.0113 µM.

On to `Cc1ccc(Oc2ccnc(Nc3ccc(C(=O)NCCn4cccn4)cc3)c2)c(C)n1` [Example 140, 4-{[4-(2,6-Dimethylpyridin-3-yl)oxypyridin-2-yl]amino}-N-(2-pyrazol-1-ylethyl)benzamide], for which the IC50 came out at 0.0208 µM.

On to `Cc1ccc(Oc2ccnc(Nc3ccc(S(=O)(=O)NCCN4CCS(=O)(=O)CC4)cc3)c2)c(C)n1` [Example 132, 4-{[4-(2,6-Dimethylpyridin-3-yl)oxypyridin-2-yl]amino}-N-[2-(1,1-dioxo-1,4-thiazinan-4-yl)ethyl]benzenesulfonamide], for which the IC50 is 0.142 µM.

`Cc1ccc(Oc2ccnc(Nc3ccc(CC#N)cc3)c2)c(-c2ccccc2)n1` [Example 148, 2-(4-{[4-(6-Methyl-2-phenylpyridin-3-yl)oxypyridin-2-yl]-amino}phenyl)acetonitrile]: the IC50 stood at 0.0339 µM.

In the case of `Cc1cc(Oc2ccnc(Nc3ccc(OCCNC(=O)OC(C)(C)C)cc3)c2)c(-c2ccccn2)nc1C` [Example 195, tert-Butyl N-[2-(4-{[4-(5,6-dimethyl-2-pyridin-2-ylpyridin-3-yl)-oxypyridin-2-yl]amino}phenoxy)ethyl]carbamate], the IC50 was 0.0121 µM.

With `Cc1ccc(Oc2ccnc(Nc3ccc(C(N)=O)cc3)c2)c(-c2ccco2)n1` [Example 162, 4-({4-[2-(Furan-2-yl)-6-methylpyridin-3-yl]oxypyridin-2-yl}-amino)benzamide], the IC50 turned out to be 0.0204 µM.

Turning to `CNS(=O)(=O)Cc1ccc(Nc2cc(Oc3cc(C)c(C)nc3-c3ccccn3)ccn2)cc1` [Example 80, 1-(4-{[4-(5,6-Dimethyl-2-pyridin-2-ylpyridin-3-yl)oxypyridin-2-yl]-amino}phenyl)-N-methylmethanesulfonamide], the IC50 turned out to be 0.0169 µM.

As to `Cc1ccc(Oc2ccnc(Nc3ccc(S(=O)(=O)N(C)CCO)cc3)c2)c(C)n1` [Example 112, 4-{[4-(2,6-Dimethylpyridin-3-yl)oxypyridin-2-yl]amino}-N-(2-hydroxyethyl)-N-methylbenzenesulfonamide], the IC50 is 0.505 µM.

Consider `Cc1cc(Oc2ccnc(Nc3ccc(C(N)=O)cc3)c2)c(-c2ccccn2)nc1C` [Example 81, 4-{[4-(5,6-Dimethyl-2-pyridin-2-ylpyridin-3-yl)oxypyridin-2-yl]-amino}benzamide], for which the IC50 stood at 0.0111 µM.

As for `Cc1ccc(Oc2ccnc(Nc3ccc(C(=O)NCCN4CCCC4=O)cc3)c2)c(C)n1` [Example 141, 4-{[4-(2,6-dimethylpyridin-3-yl)oxypyridin-2-yl]amino}-N-[2-(2-oxopyrrolidin-1-yl)ethyl]benzamide], the IC50 is 0.0693 µM.

As for `COc1cc(Nc2cc(Oc3ccc(C)nc3-c3ccc(F)cc3)ccn2)cc(OC)c1OC` [Example 171, 4-[2-(4-Fluorophenyl)-6-methylpyridin-3-yloxy]-N-(3,4,5-trimethoxyphenyl)pyridin-2-amine], the IC50 was 0.0239 µM.

Take `Cc1ccc(Oc2ccnc(Nc3ccc(C(=O)NCCn4cccc4)cc3)c2)c(C)n1` [Example 216, 4-{[4-(2,6-Dimethylpyridin-3-yl)oxypyridin-2-yl]amino}-N-(2-pyrrol-1-ylethyl)benzamide]: the IC50 stood at 0.108 µM.

As for `CNS(=O)(=O)c1ccc(Nc2cc(Oc3ccc(C)nc3C)ccn2)cc1` [Example 108, 4-{[4-(2,6-Dimethylpyridin-3-yl)oxypyridin-2-yl]amino}-N-methylbenzenesulfonamide], the IC50 came to 0.171 µM.

On to `Cc1ccc(Oc2ccnc(Nc3ccc(C(=O)NC4CCN(C)CC4)cc3)c2)c(C)n1` [Example 130, 4-[4-(2,6-Dimethylpyridin-3-yloxy)pyridin-2-ylamino]-N-(1-methylpiperidin-4-yl)benzamide], for which the IC50 came to 0.0189 µM.

Consider `Cc1ccc(Oc2ccnc(Nc3cccc(C(=O)N4CCN(C)CC4)c3)c2)c(C)n1` [Example 71, [3-{[4-(2,6-Dimethylpyridin-3-yl)oxypyridin-2-yl]amino}phenyl]-(4-methylpiperazin-1-yl)methanone], for which the IC50 was determined as 0.096 µM.

As for `Cc1ccc(Oc2ccnc(Nc3cccc(C(=O)N4CCC4)c3)c2)c(C)n1` [Example 61, Azetidin-1-yl-(3-{[4-(2,6-dimethylpyridin-3-yl)oxypyridin-2-yl]-amino}phenyl)methanone], the IC50 is 0.0227 µM.

Turning to `Cc1ccc(Oc2ccnc(Nc3ccc(S(=O)(=O)NCCn4cccn4)cc3)c2)c(C)n1` [Example 136, 4-{[4-(2,6-Dimethylpyridin-3-yl)oxypyridin-2-yl]amino}-N-(2-pyrazol-1-ylethyl)benzenesulfonamide], the IC50 was 0.101 µM.

For the compound `COc1cc(Nc2cc(Oc3cccnc3-c3ccccc3C(N)=O)ccn2)cc(OC)c1OC` [Example 221, 2-(3-{2-[(3,4,5-Trimethoxyphenyl)amino]pyridin-4-yl}oxypyridin-2-yl)benzamide], the IC50 was determined as 3.02 µM.

As to `Cc1cc(Oc2ccnc(Nc3ccc(OCC(O)CNC(C)C)cc3)c2)c(-c2ccccn2)nc1C` (stereo not shown) [Example 75, 1-(4-{[4-(5,6-Dimethyl-2-pyridin-2-ylpyridin-3-yl)oxypyridin-2-yl]-amino}phenoxy)-3-(propan-2-ylamino)propan-2-ol], the IC50 is 0.0136 µM.

`Cc1ccc(Oc2ccnc(Nc3cccc(C(=O)NC4CC4)c3)c2)c(C)n1` [Example 194A, N-Cyclopropyl-3-{[4-(2,6-dimethylpyridin-3-yl)oxypyridin-2-yl]-amino}benzamide]: the IC50 is 0.0457 µM.

`Cc1ccc(Oc2ccnc(Nc3ccc(CO)cc3)c2)c(-c2ccccc2)n1` [Example 152, (4-{[4-(6-Methyl-2-phenylpyridin-3-yl)oxypyridin-2-yl]amino}-phenyl)methanol]: the IC50 was 0.00705 µM.

Take `Cc1ccc(Oc2ccnc(Nc3cccc(CN4CCN(C(=O)CCN)CC4)c3)c2)c(C)n1` [Example 189, 3-Amino-1-{4-[(3-{[4-(2,6-dimethylpyridin-3-yl)oxypyridin-2-yl]-amino}phenyl)methyl]piperazin-1-yl}propan-1-one]: the IC50 stood at 0.0262 µM.

With `COCC(C)NS(=O)(=O)c1ccc(Nc2cc(Oc3ccc(C)nc3C)ccn2)cc1` (stereo not shown) [Example 118, 4-{[4-(2,6-Dimethylpyridin-3-yl)oxypyridin-2-yl]amino}-N-(1-methoxypropan-2-yl)benzenesulfonamide], the IC50 was 0.155 µM.
